Biological target: CDK8 (Homo sapiens (Human), UniProt P49336)
Assay: LanthaScreen Eu Binding Assay, Thermo Fisher SelectScreen kinase service
Details: for inhibition at 10 µM: read-out: CDK8 Inhibition percentage at 10 μM; for IC50: read-out: Inhibition of CDK8 IC50
Protocol: Compounds were tested for kinase inhibitory activity using the Thermo Fisher SelectScreen service (www.thermofisher.com/selectscreen). For CDK8, the LanthaScreen Eu Binding Assay was used. Briefly, the assay employed utilizes a fluorescent tracer to a given kinase. This is used to detect the addition of an anti-tag antibody. When the tracer and antibody bind to the targeted kinase, the Forster resonance energy transfer is measured. When a kinase inhibitor is added to the assay, the tracer/kinase binding will be disrupted, producing low FRET detection and indicating kinase inhibitory activity. Evaluation of kinase activity of additional kinase targets utilized the LanthaScreen binding assay or the Z′-Lyte activity assay provided by Thermo Fisher SelectScreen service. The IC50 values were determined using sequential doses, and the inhibition curves were provided by Thermo Fisher Scientific.
The fragment-based drug design strategy in this study led to optimized CDK8 inhibitors with promising results. CDK8-inhibitory activities of the compounds (a-n) designed by this fragment-based drug design strategy were tested using the SelectScreen kinase service of ThermoFisher Scientific. The inhibitory effects of the 14 compounds and the referenced compound were tested at a concentration of 10 μM.

Chain of CDK8 (P49336 whole entry, looked up): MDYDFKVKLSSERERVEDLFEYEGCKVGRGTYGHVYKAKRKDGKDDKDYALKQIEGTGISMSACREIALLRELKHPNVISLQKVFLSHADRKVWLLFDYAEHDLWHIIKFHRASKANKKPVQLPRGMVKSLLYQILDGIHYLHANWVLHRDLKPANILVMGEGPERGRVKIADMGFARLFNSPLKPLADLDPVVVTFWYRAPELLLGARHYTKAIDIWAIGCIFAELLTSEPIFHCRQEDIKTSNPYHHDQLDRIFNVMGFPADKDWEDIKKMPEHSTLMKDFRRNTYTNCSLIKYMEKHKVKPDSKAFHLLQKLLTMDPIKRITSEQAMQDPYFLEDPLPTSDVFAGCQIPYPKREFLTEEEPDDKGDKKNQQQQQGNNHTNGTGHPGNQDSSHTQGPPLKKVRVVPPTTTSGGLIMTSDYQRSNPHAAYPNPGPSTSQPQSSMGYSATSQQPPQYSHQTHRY
Chain of CDK8 (P24863 whole entry partner, looked up): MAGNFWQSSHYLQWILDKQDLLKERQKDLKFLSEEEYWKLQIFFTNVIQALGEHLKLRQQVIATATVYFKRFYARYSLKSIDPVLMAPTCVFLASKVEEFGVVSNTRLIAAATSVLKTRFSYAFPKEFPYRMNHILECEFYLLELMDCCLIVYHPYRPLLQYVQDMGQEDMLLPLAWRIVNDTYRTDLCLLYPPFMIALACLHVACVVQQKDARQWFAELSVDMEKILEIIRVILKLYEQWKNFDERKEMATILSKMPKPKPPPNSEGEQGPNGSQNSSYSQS

Structure (SMILES)	inhibition at 10 µM	CDK8 Inhibition percentage at 10 μM	IC50
CC(C)=C1C(=O)Nc2ccc(S(=O)(=O)Nc3ccc(NC(=O)c4ccccc4)cc3)cc21 [Compound c, N-(4-((2-Oxo-3-(propan-2-ylidene)indoline)-5-sulfonamido)phenyl)benzamide]	–	33%	–
CC(C)=C1C(=O)Nc2ccc(S(=O)(=O)Nc3cc(-c4ccc(C)cc4)[nH]n3)cc21 [Compound f, 2-Oxo-3-(propan-2-ylidene)-N-(5-(p-tolyl)-1H-pyrazol-3-yl) indoline-5-sulfonamide]	–	89%	798 nM
CC(C)=C1C(=O)Nc2ccc(S(=O)(=O)Nc3nnc(-c4ccccc4)s3)cc21 [Compound g, 2-Oxo-N-(5-Phenyl-1,3,4-thiadiazol-2-yl)-3-(propan-2-ylidene) indoline-5-sulfonamide]	–	99%	338 nM
CC(C)=C1C(=O)Nc2ccc(S(=O)(=O)Nc3ccc(-n4ccnc4)cc3)cc21 [Compound i, N-(4-(1H-imidazol-1-yl)phenyl)-2-oxo-3-(propan-2-ylidene) indoline-5-sulfonamide]	–	92%	945 nM
CNC(=O)c1cc(Oc2ccc(NS(=O)(=O)c3ccc4c(c3)C(=C(C)C)C(=O)N4)cc2)ccn1 [Compound j, N-Methyl-4-(4-((2-oxo-3-(propan-2-ylidene)indoline)-5-sulfonamido)phenoxy)picolinamide]	–	85%	1240 nM
CNC(=O)c1ccc(NS(=O)(=O)c2ccc3c(c2)C(=C(C)C)C(=O)N3)cc1F [Compound l, 2-Fluoro-N-methyl-4-((2-oxo-3-(propan-2-ylidene)indoline)-5-sulfonamido)benzamide]	–	92%	652 nM
CC(C)=C1C(=O)Nc2ccc(S(=O)(=O)Nc3ccc(C)c(Nc4nccc(-c5cccnc5)n4)c3)cc21 [Compound m, N-(4-Methyl-3-((4-(pyridin-3-yl)pyrimidin-2-yl)amino)phenyl)-2-oxo-3-(propan-2-ylidene)indoline-5-sulfonamide]	46%	–	–

The next lines start with results.

inhibition at 10 µM	Structure (SMILES)	CDK8 Inhibition percentage at 10 μM	IC50
99%	CC(C)=C1C(=O)Nc2ccc(S(=O)(=O)Nc3ccc(C(=O)c4ccccc4)cc3)cc21 [Compound d, N-(4-Benzoylphenyl)-2-oxo-3-(propan-2-ylidene)indoline-5-sulfonamide]	–	380 nM
82%	CC(C)=C1C(=O)Nc2ccc(S(=O)(=O)Nc3cc(-c4ccccc4)[nH]n3)cc21 [Compound e, 2-Oxo-N-(5-phenyl-1H-pyrazol-3-yl)-3-(propan-2-ylidene)indoline-5-sulfonamide]	–	1640 nM
91%	CC(C)=C1C(=O)Nc2ccc(S(=O)(=O)Nc3nc4ccccc4s3)cc21 [Compound h, N-(Benzo[d]thiazol-2-yl)-2-oxo-3-(propan-2-ylidene)indoline-5-sulfonamide]	–	870 nM
74%	CC(C)=C1C(=O)Nc2ccc(S(=O)(=O)Nc3cccc4c(=O)[nH][nH]c(=O)c34)cc21 [Compound n, N-(1,4-Dioxo-1,2,3,4-tetrahydrophthalazin-5-yl)-2-oxo-3-(propan-2-ylidene)indoline-5-sulfonamide]	–	3000 nM
87%	CC(=O)c1cccc(NS(=O)(=O)c2ccc3c(c2)C(=C(C)C)C(=O)N3)c1 [Reference Compound, N-(3-acetylphenyl)-2-oxo-3-(propan-2-ylidene)-indoline-5-sulfonamide, reference compound]	–	1680 nM

Reference: patent US20250109120A1, “INDOLINE DERIVATIVES FOR TREATMENT AND/OR PREVENTION OF TUMOR OR CELL PROLIFERATIVE AND FIBROSIS DISEASES” (NATIONAL TAIWAN UNIVERSITY, priority 2023, published 2025)
